For data set [1], the system named is chondrocytes. The class given is cell-based. The procedure, abridged:
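Bovine chondrocyte pellets (calf articular cartilage, or alginate-recovered chondrocyte tissue punches) pretreated with compounds 1 h at 37 °C, then incubated 3-5 days with or without 10 ng/ml IL-1β, DMSO ≤1%. Media LDH activity measured colorimetrically via lactate-to-pyruvate conversion reducing INT tetrazolium to formazan.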

For data set [2], the system named is injured cartilage explants, GAG release. Briefly: drop tower design model: GAG release. Type of data set: cell-based, bovine. To be noted: injured cartilage explants, inflammatory conditions. From the text:
The device comprises a vertical rail that guides a sliding weight from 0.1 kg to 3 kg directly onto a force transducer which is situated at the bottom of the device. A sphere-shaped 2 mm indenter resting on a specimen is located at the bottom of the vertical rail. The indenter is held by a stop screw. The specimen is rigidly attached to a tissue holder underneath the indenter, to avoid side movements, the specimen is rigidly attached to the tissue holder. In this manner, the force transducer transduces a force indirectly onto the specimen. Adjusting the weight of a mass and height from which the mass drops varies the magnitude of the intended impact. For example, a weight mass (e.g., […]) held by a weight holder can be released from a height of e.g., 36 cm and dropped onto the force transducer.
Samples for compound evaluation were tested using either of two different methods to induce inflammatory conditions. One method utilized media conditioned from peripheral blood mononuclear cells (PBMCs) stimulated with LPS (“+LPS”) or non-inflammatory media without LPS (“−LPS”). Another method utilized the absence or presence of a cocktail of cytokines.
In the first method, bovine or human PBMCs were freshly prepared using Ficoll gradient by Lampire Biological Laboratories, Inc. PBMCs in RPMI w/10% FCS at delivery were spun down at 1500 rpm for twenty minutes and the cell pellet was washed twice with 1×PBS to wash off the residual Ficoll. The cells were then resuspended at a density of 1×10^6/ml in RPMI supplemented with 10% FCS, 1× Antibiotics-Antimycotics. The suspension was divided into two aliquots. One aliquot was stimulated with 10 μg/ml of LPS and the other was not stimulated. Both aliquots were then incubated at 37° C., 5% CO2 for twenty-four to seventy-two hours. The conditioned media with or without LPS stimulation are collected, aliquoted, and stored in −80° C. for a maximum of three months. Each conditioned medium was assessed for levels of pro-inflammatory cytokines to ensure their secretion from PBMC. A representative cytokine, IL-6, was assayed by ELISA using a Human IL-6 Quantikine kit and it was shown that the LPS-stimulated medium had at least 10 ng/ml of IL-6, while IL-6 was undetectable in the unstimulated medium.
In the second method, the explants were cultured at 37° C., 5% CO2 either in stimulated or non-stimulated conditioned medium as described above or in defined medium containing DMEM supplemented with 1% FCS, 1× insulin-transferrin-sodium selenite media supplement and Antibiotics-Antimycotics in the presence or absence of a cocktail of cytokines containing 10 ng/ml of IL-1β, 100 ng/ml of TNFα and 5 ng/ml of IFN-γ. The compounds were solubilized in H2O, Ethanol or DMSO (10^−2 M) according to suppliers' instructions and further diluted with either conditioned medium stimulated with or without LPS to the required concentrations. DMSO concentrations in the culture media never exceeded 1%. This concentration of DMSO has no effect on cartilage proteoglycan metabolism in response to cytokines. The injured and noninjured cartilage explants were treated with compound-containing medium for three to five days. The specimens were first treated with compounds at desired concentrations at 37° C. for one hour and then incubated for three to five days in the absence or presence of the cocktail of cytokines. At the end of the incubation, media and cartilage samples were harvested and frozen for further analysis.
Glycosaminoglycan (GAG) levels in the culture media or cartilage were determined by measuring the amount of polyanionic material reacting with 1,9-dimethylmethylene blue (DME) as detected by absorbance at 525 nm, using shark chondroitin sulfate as a standard. The DME blue dye-binding solution was prepared by dissolving 16 mg of DME blue in a solution containing 0.304% glycine, 0.23% NaCl, 9.5 mM HCl, pH=3.0 with A525 equaling 0.31. […]

[3] abbreviates: within the tested concentrations.

The structures appear in SMILES notation. Like-named read-outs stand apart in the source and are kept apart here.

Consider `OCCC#Cc1nc(-c2ccc(F)cc2)c(-c2ccncc2)n1CCCc1ccccc1` [JNJ 3026582 (RWJ 67657), 4-[4-(4-fluorophenyl)-1-(3-phenylpropyl)-5-(4-pyridinyl)-1H-imidazol-2-yl]-3-butyn-1-ol], for which, in data set [1] (setting [3]), the “cytotoxicity to chondrocytes (LDH, words)” value (“cytotoxicity to chondrocytes” for short) is given as “little cytoxicity”. Besides, in data set [2], the “GAG, inhibition of degradation/release” value is reported as “little efficacy”.

For the molecule `CC(=O)N1CCN(c2c(-c3ccncc3)c(-c3ccc(F)cc3)c(C#N)n2C)CC1` [JNJ 17089540 (RWJ 669307)], in data set [1], the “cytotoxicity to chondrocytes” value is “little cytoxicity”.

Regarding `CC(=O)Oc1cccc2c1C(=O)c1c(OC(C)=O)cc(C(=O)O)cc1C2=O` [Diacerein, reference compound], in data set [2], the “GAG, inhibition of degradation/release” value is “completely inhibited”.

As to `C[C@H](Nc1nccc(-c2c(-c3ccc(F)cc3)nc3nc(N)ccn23)n1)c1ccccc1` [JNJ 7583979 (RWJ 351958)], the “cytotoxicity to chondrocytes” value in data set [1] (setting [3]) is listed as “little cytoxicity”. Also, the “GAG, inhibition of degradation/release” value is “little efficacy” in data set [2] and “little” in data set [2] (listed as JNK 7583979 (RWJ 351958)).

Values taken from patent US8986696B2, “Trans-capsular administration of p38 map kinase inhibitors into orthopedic joints” (DePuy Mitek, Inc., priority 2007, dated 2015).
